Source: patent US11285119B2, “Anti-inflammatory composition” (NEOPHARM CO., LTD., priority 2016, dated 2022)

How the values were obtained:
IL-8 = test: Anti-inflammatory effect: IL-8 expression in atopic dermatitis-induced 3D culture tissue (immunohistochemistry); format: cell-based; details: compared with the skin model in which atopic dermatitis was induced, 72 hours, quantified immunohistochemistry (FIG. 2), read-out: IL-8 inhibitory effect
Experimental: (§1) In order to measure the anti-inflammatory efficacy, atopic dermatitis was induced with respect to IL-8 and IL-17A, which are inflammation-inducing cytokines, and expression amounts thereof were measured.
(§2) In order to induce atopic dermatitis, the 3D culture tissue (EpiDerm Full Thickness 400, sold by MatTek) media containing Poly (I:C), TNF-α, IL-4 and IL-13 were used, and treated for 72 hours with N-(2-hydroxyethyl)octanamide at a final concentration of 100 μM. Then, the 3D culture tissue was immobilized on formalin to make a paraffin block, and the degree of expression of inflammation-inducing cytokine was evaluated.
(§3) In FIG. 1, AD represents a skin model in which atopic dermatitis was induced, and the anti-inflammatory effect was evaluated based on the expression amounts of IL-8 and IL-17A.
(§4) Further, the inhibitory effect of each cytokine was quantified based on the results obtained through the immunohistochemistry obtained in FIG. 1, and shown in FIG. 2.

IL-17A = test: Anti-inflammatory effect: IL-17A expression in atopic dermatitis-induced 3D culture tissue (immunohistochemistry); format: cell-based; details: compared with the skin model in which atopic dermatitis was induced, 72 hours, quantified immunohistochemistry (FIG. 2), read-out: IL-17A inhibitory effect
Experimental: as §1, §2, §3, §4

atopic dermatitis = test: Atopic dermatitis improvement effect (EASI score) in pediatric patients; format: in vivo, human; details: 30 pediatric patients with atopic dermatitis, twice a day for 4 weeks
Experimental: In order to measure atopic dermatitis improvement effect, the anti-inflammatory compositions were prepared according to the following Examples. Here, the atopic dermatitis improvement effect was measured using an eczema area severity index (EASI) score. 30 pediatric patients with atopic dermatitis were treated twice a day for 4 weeks, and then effects on atopic symptoms were measured.

[1] = system: human fibroblast (ATCC 2076); test: Confirmation of cytotoxicity (MTT cell viability); format: cell-based; details: for Cell viability (%): human fibroblast, MTT
Experimental: The cell viability for human fibroblast (ATCC 2076) was measured using the anti-inflammatory composition prepared in the following Examples.
The human fibroblast (ATCC 2076) with a concentration of 5×10^4 cells/ml was inoculated into a 24-well culture plate of Iscove's Modified Dulbecco's Medium (IMDM, GIBCO) containing 10% bovine serum. […] Then, the supernatant was removed, the cells were washed with 200 μl of 5% phosphate buffered saline (PBS), 1.0 ml of MTT solution was added to each well, and after 4 hours, and the MTT was removed. Next, 1.0 ml of DMSO was added to each well, and incubation was performed overnight at 37° C. The absorbance at 570 nm was measured to determine the cell viability using Equation 1 below, and results thereof are shown in Table 1 below. Here, as a negative control group, a test group in which the active ingredient was not used was adopted. Cell viability (%)=(A570λvalue/B570λvalue)×100 [Equation 1]
A: Absorbance value at 570 nm of Example
B: Absorbance value at 570 nm of negative control group

## CCCCC(CC)C(=O)NC(CO)CO (stereo not shown) [Example 1, N-(1,3-dihydroxypropan-2-yl)-2-ethylhexanamide]
IL-8
  inhibition at 100 µM: ≥ 48.5%
IL-17A
  inhibition at 100 µM: ≥ 58.9%
Atopic dermatitis
  Atopic dermatitis improvement effect (EASI score): significant numerical decrease
[1]; in the concentration range of the evaluation method
  Cytotoxicity: no cytotoxicity
[1]; used amount 0.00064 μM
  Cell viability (%): 110%
[1]; used amount 0.0032 μM
  Cell viability (%): 106%
[1]; used amount 0.016 μM
  Cell viability (%): 99%
[1]; used amount 0.08 μM
  Cell viability (%): 100%
[1]; used amount 0.4 μM
  Cell viability (%): 98%
[1]; used amount 2 μM
  Cell viability (%): 101%
[1]; used amount 10 μM
  Cell viability (%): 101%
[1]; used amount 50 μM
  Cell viability (%): 101%
[1]; used amount 250 μM
  Cell viability (%): 108%
